Assays:
Assay in all cases: normalised viability (% of control), CellTiter-Blue; higher = more viable cells (about 100 = DMSO control)
Hs578T = conditions: 10000 nM; incubation time: 72 h
Outline: (§1)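 Compound dissolved in 5 µl medium was pre-loaded into 384-well plates, and breast cancer cell lines in 20 µl suspension were seeded on top and incubated 72 h. After adding 2.5 µl CellTiter-Blue reagent for 2 h at 37 °C, fluorescence was read at 560/590 nm. Plates were normalised to vehicle (100) and a positive kill control (0), with Z'-factor quality control. Each value is normalised viability at a single listed concentration from the series.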

HCC1143 [1] = conditions: 10000 nM; incubation time: 72 h
Outline: as §1

MDA-MB-468 = conditions: 10000 nM; incubation time: 72 h
Outline: as §1

CAL-51 [2] = conditions: 100 nM; incubation time: 72 h
Outline: as §1

HCC1937 [3] = conditions: 10000 nM; incubation time: 72 h
Outline: as §1

SK-BR-3 [4] = conditions: 10000 nM; incubation time: 72 h
Outline: as §1

CAL-120 = conditions: 10000 nM; incubation time: 72 h
Outline: as §1

MDA-MB-231 [5] = conditions: 10000 nM; incubation time: 72 h
Outline: as §1

DU-4475 [6] = conditions: 100 nM; incubation time: 72 h
Outline: as §1

CAL-85-1 [7] = conditions: 100 nM; incubation time: 72 h
Outline: as §1

BT-474 = conditions: 10000 nM; incubation time: 72 h
Outline: as §1

HDQ-P1 [8] = conditions: 100 nM; incubation time: 72 h
Outline: as §1

MFM-223 [9] = conditions: 10000 nM; incubation time: 72 h
Outline: as §1

MDA-MB-436 = conditions: 10000 nM; incubation time: 72 h
Outline: as §1

BT-549 [10] = conditions: 10000 nM; incubation time: 72 h
Outline: as §1

HCC1599 [11] = conditions: 10000 nM; incubation time: 72 h
Outline: as §1

CAL-51 [12] = conditions: 1000 nM; incubation time: 72 h
Procedure: (§2)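 DSRT, CellTiter-Blue viability, 72 h incubation. Signal is normalised to DMSO and benzethonium chloride controls. Value is the normalised response at dose 7.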

DU-4475 [13] = conditions: 1000 nM; incubation time: 72 h
Procedure: as §2

CAL-85-1 [14] = conditions: 1000 nM; incubation time: 72 h
Procedure: as §2

CAL-148 [15] = conditions: 1000 nM; incubation time: 72 h
Procedure: as §2

HDQ-P1 [16] = conditions: 1000 nM; incubation time: 72 h
Procedure: as §2

MDA-MB-453 [17] = conditions: 1000 nM; incubation time: 72 h
Procedure: as §2

HCC1143 [18] = conditions: 10 nM; incubation time: 72 h
Outline: as §1

CAL-51 [19] = conditions: 3 nM; incubation time: 72 h
Outline: as §1

HCC1937 [20] = conditions: 10 nM; incubation time: 72 h
Outline: as §1

SK-BR-3 [21] = conditions: 10 nM; incubation time: 72 h
Outline: as §1

MDA-MB-231 [22] = conditions: 10 nM; incubation time: 72 h
Outline: as §1

DU-4475 [23] = conditions: 3 nM; incubation time: 72 h
Outline: as §1

CAL-148 [24] = conditions: 3 nM; incubation time: 72 h
Outline: as §1

HDQ-P1 [25] = conditions: 3 nM; incubation time: 72 h
Outline: as §1

MFM-223 [26] = conditions: 10 nM; incubation time: 72 h
Outline: as §1

BT-549 [27] = conditions: 10 nM; incubation time: 72 h
Outline: as §1

HCC1599 [28] = conditions: 10 nM; incubation time: 72 h
Outline: as §1

MDA-MB-453 [29] = conditions: 3 nM; incubation time: 72 h
Outline: as §1

SMILES	normalised viability (Hs578T) [%]	normalised viability (HCC1143 [1]) [%]	normalised viability (MDA-MB-468) [%]	normalised viability (CAL-51 [2]) [%]	normalised viability (HCC1937 [3]) [%]	normalised viability (SK-BR-3 [4]) [%]	normalised viability (CAL-120) [%]	normalised viability (MDA-MB-231 [5]) [%]	normalised viability (DU-4475 [6]) [%]	normalised viability (CAL-85-1 [7]) [%]	normalised viability (BT-474) [%]	normalised viability (HDQ-P1 [8]) [%]	normalised viability (MFM-223 [9]) [%]	normalised viability (MDA-MB-436) [%]	normalised viability (BT-549 [10]) [%]	normalised viability (HCC1599 [11]) [%]	normalised viability (CAL-51 [12]) [%]	normalised viability (DU-4475 [13]) [%]	normalised viability (CAL-85-1 [14]) [%]	normalised viability (CAL-148 [15]) [%]	normalised viability (HDQ-P1 [16]) [%]	normalised viability (MDA-MB-453 [17]) [%]	normalised viability (HCC1143 [18]) [%]	normalised viability (CAL-51 [19]) [%]	normalised viability (HCC1937 [20]) [%]	normalised viability (SK-BR-3 [21]) [%]	normalised viability (MDA-MB-231 [22]) [%]	normalised viability (DU-4475 [23]) [%]	normalised viability (CAL-148 [24]) [%]	normalised viability (HDQ-P1 [25]) [%]	normalised viability (MFM-223 [26]) [%]	normalised viability (BT-549 [27]) [%]	normalised viability (HCC1599 [28]) [%]	normalised viability (MDA-MB-453 [29]) [%]
CN(C)CCN1C(=O)c2cccc3cc(N)cc(c23)C1=O [Amonafide]	47.6	43.5	41.3	104	29.5	20.8	24.3	22.3	84.6	87.8	69.3	110	31.6	44.1	47.9	47.5	99.1	86.8	84	74.5	93.8	81.7	83.6	112	91.8	99.9	97.2	100	88.8	98.5	92.1	84.9	98.2	106
CC(C)(C#N)c1cc(Cn2cncn2)cc(C(C)(C)C#N)c1 [Anastrozole]	107	80.5	95.2	111	90.9	102	90.2	106	98.7	91.8	122	91.8	90.5	97.1	85.1	104	93.9	91.3	90.8	90.4	84.2	105	73.5	112	90.3	95.1	96.3	106	93.3	102	96.9	94	98	104
O=C(O)CCCc1ccc(N(CCCl)CCCl)cc1 [Chlorambucil]	87.5	96	81.2	107	52.8	80.4	91	88.4	112	98.6	118	111	85.8	83.3	74.7	92.5	101	103	97.5	105	98.9	113	83.5	115	51.5	113	101	101	98	114	95.5	80.9	108	131
